Experimental data: patent US8778643B2, “Methods for increasing lipid levels and producing triacylglycerols in algae” (priority 2012, dated 2014)
Where “and” joins values, the source holds several entries; their conditions need not be identical. Equal entries are not always repeated. Entries after “also recorded” stand apart in the source; their conditions may differ. Where two headings read alike, the source gives them in different places.

Assays:
[1] = tested on: Phaeodactylum tricornutum; test: Microplate assay: growth (absorbance 680 nm) and intracellular lipids (Nile Red fluorescence); type: cell-based; details: for increase in lipid levels: higher concentrations
[2] = tested on: Nannochloropsis salina
Protocol: (§1) Stock cultures were aerated by stirring with bubbling air (homemade manifold with Petco air pump, 2-4% CO2) or by orbital shaking (Thermo Scientific MAXQ 2000) at a constant speed of 150 rpm at 22±3° C. with a 16:8 hour light/dark cycle. Stocks were kept at stationary phase for use. Algae were prepared as dictated by culture center.
(§2) Compounds were selected based on reported biological activity in non-microalgae organisms. To ensure that compounds retained their quality, they were stored under advised conditions after purchasing from the manufacturer. Solutions of all assay compounds were prepared as 10 mM stock solutions by dissolving in DMSO in 2-dram amber vials and then stored in darkness −20° C. 96-well PCR plates were used to create a stock plate layout that was then transferred to the algae microplates. A plate map was used to distribute each compound to a well based on molecule name, collection number, and CAS number. For 20 μM and 200 nM assay plates, 10 mM compound stock in DMSO was diluted into plate maps of 5 mM and 50 μM assay stocks, respectively.
(§3) All materials for assay experiments were autoclaved before each use to maintain axenic algae cultures. Algae species were checked for homogeneity using a TS-100 light microscope (Nikon, Japan). […] Diluted stock solutions were made immediately prior to use for consistency and optimal plate growth. Cell density was measured on a Thermo Scientific Genesys 10S Vis Spectrophotometer (ThermoFisher, San Jose), using a 1 mL cuvette at 680 nm.
(§4) Plates were originally run in triplicate, before replicates were increased to quadruplicate, along with a separate control plate to compare growth. Due to extensive evaporation in exterior wells over time, our unique algae plate layout was designed to use the 60 interior wells out of 96 wells for the experiment. The 36 outer wells were filled with Millipore water and media to prevent evaporation and edge effects in the inner algae wells, as well as serve as blanks. The 60 wells with algae contained a total volume of 251 μL (100 μL of media+DMSO compound stock +150 μL dilute algae stock). For 20 μM and 200 nM assay plates, 10 mM compound stock in DMSO is diluted into plate maps of 5 mM and 50 μM assay stocks, respectively. […] Plates were parafilmed during growth to limit the amount of evaporation that can occur. Plates were numbered, and numerically ordered to ensure they got the same shaker space.
(§5) The shakers are kept at a constant shaking of 150 rpm. Ambient temperature is 22±3° C.

[3] = tested on: Phaeodactylum tricornutum; test: 500 mL batch culture: growth, dry weight and lipid extract (gravimetric); type: cell-based
Protocol: (§6) Batch cultures were grown in 500 mL Pyrex media bottles with stirring and air bubbling (homemade manifold with Petco air pump, 2-4% CO2). Incoming air was sterile filtered by Polyvent 4 disposable filters (Whatman, Kent, UK). […] To minimize bacterial contamination, all equipment and materials were autoclaved and media was added to flask in a Purifier Vertical Clean bench (Labconco, Kansas City, Mo.). […] The amount of DMSO is standardized for all experiments to 0.4%.
(§7) For all compound cultures, the 2 mL DMSO stock solution was added to media (without algae) first and mixed well. Control cultures were grown without DMSO. DMSO controls consisted of 0.04-1.0% DMSO. After the addition of algae and media, the container was plugged with a bug stopper vented closure cap and mixed thoroughly. Absorbance is measured immediately for Day 0 analysis. Afterward, absorbance was measured every 1-2 days with a cuvette (1 mL volume) on the Thermo Scientific Genesys 10S V is Spectrophotometer (ThermoFisher, San Jose) at 680 nm.
(§8) Batch cultures were also repeated in triplicate and compared to a control culture grown at the same time. Algae were harvested and lipids were extracted for gravimetric analysis.
(§9) The nonpolar algal extracts were harvested from 500 mL cultures when indicated on growth curves, a minimum of 3 days into stationary phase.
(§10) Cell density was monitored by measuring absorbance at 680 nm every 1-2 days.
(§11) 500-mL cultures were harvested 6 days into stationary phase based on absorbance values. Cells were concentrated by centrifugation and lyophilization to remove water. Nonpolar lipids were extracted by sonication and solvent (chloroform-methanol and PBS buffer). […] Changes in lipid levels for batch cultures were determined by crude lipid extract mass.

[4] = tested on: microalgae; test: Microplate assay (growth, Nile Red lipids), algae strain not stated
[5] = tested on: Nannochloris sp.; test: 500 mL batch culture: growth, dry weight and lipid extract (gravimetric); type: cell-based; details: for Lipid productivity / Change in Lipids / Specific Growth Rate: Nannochloris sp., 500 mL culture; for Change in Lipids: gravimetric, relative to averaged control without DMSO; for Specific Growth Rate: mid-exponential growth phase
Protocol: as §6, §7, §8, §9, §10, §11

[6] = tested on: Nannochloropsis oculata; test: as above; type: cell-based
Protocol: as §6, §7, §8, §9, §10, §11

[7] = tested on: Nannochloropsis oculata; test: Lipid composition of batch culture extracts (fatty acid saturation / PUFA by 1H NMR, MALDI-TOF, GC/MS); type: cell-based; details: for SFAs (%) / MUFAs (%) / n3 PUFAs (%) / PUFAs (%): N. oculata, n=1; for SFAs (%): Normal 0 ± 1; for MUFAs (%): Normal 4 ± 7; for n3 PUFAs (%): Normal 28 ± 4; for PUFAs (%): Normal 96 ± 7; for SFAs (% of total lipids) / n3 PUFAs (% of UFAs) / All other PUFAs and MUFAs (% of UFAs) / UFAs (% of total lipids): 1H NMR; for SFAs (% of total lipids): Normal 24; for n3 PUFAs (% of UFAs): Normal 37; for All other PUFAs and MUFAs (% of UFAs): Normal 63; for UFAs (% of total lipids): Normal 76
Protocol: The nonpolar algal extracts were harvested from 500 mL cultures when indicated on growth curves, a minimum of 3 days into stationary phase. […] Cells were crushed and nonpolar lipids were extracted by sonication (Fisher Scientific Model 120 Sonic Dismembrator, ThermoFisher, San Jose) for 1 minute in chloroform, followed by chloroform-methanol extractions, washed with PBS butter, and dried under vacuum.^55-60 The crude non-polar algae extracts were then analyzed by ^1H Nuclear Magnetic Resonance (^1H NMR) for verification of TAG presence and examination of the purity of the extract (determination of level of chlorophyll). The extracts were then divided for analysis; one part for transesterification, one part to save as crude extract, and one part for SPE separation and MALDI-TOF analysis of TAGs.
Triacylglycerols can be isolated by solid-phase extraction (SPE) with 500 mg silica SPE cartridges (Silicycle, Quebec). The nonpolar extract is dissolved in 300 μL hexanes, and loaded on the SPE cartridge primed with hexanes. A mixture of 80:20:1 hexanes/diethyl ether/acetic acid was used as mobile phase to elute the TAGs.^61 SPE removes any chlorophyll in this process. Residual polar fraction containing polar lipids and chlorophyll was obtained by elution with acetone. All extracts and TAG fractions were dried under vacuum and stored under argon in amber vials at −20° C. before spectroscopic analysis. After SPE, the purified TAG fraction was reanalyzed with ^1H NMR spectroscopy for TAG characterization.
The TOF was in Reflectron mode with laser intensity from 5500-6500 Volts. Each acquisition consisted of 2500 shots with a focus mass of 900 Da, and a scan range of m/z 400-1100. Multiple acquisition scans were performed at different laser intensities to determine optimal conditions. Samples for the MALDI-TOF were diluted to 5 mg/mL in hexane, and spotted in the fast-evaporation method in a 1:2 ratio with DHB (2,5-dihydroxybenzoic acid) as the matrix. Re-spotting with methanol allowed for the matrix and sample to mix without hexane interactions, and allowed for better crystal formation. All samples on MALDI plate were allowed to dry before MS analysis. Data was normalized to base peak in all cases.
After the initial weight was recorded, the nonpolar extract set aside for transesterification was dissolved in 3.0 mL of 0.6 M sulfuric acid in methanol and stirred vigorously at 60° C. for 45 minutes.
Initial GC/MS temperature was 50° C. and end was 200° C. over at a one hour period for optimal FAME peak separation.
Peak assignment of fatty acids and their derivatives are based on NMR spectroscopic studies of previously reported algal lipid extracts^9 and comparison to standards such as olive oil (ACROS) and fatty acid mixtures.
We developed a quick and robust method to screen if the screened compound effect fatty acid saturation levels using ^1H NMR spectroscopy. The amount of saturated fatty acids (SFA), monounsaturated fatty acids (MUFAs), and polyunsaturated fatty acids (PUFAs) was determined using peak area ratios.
Calculated based on ^1H NMR integral ratios for the proton signals for the methyl group of PUFA components vs. the methyl groups of monounsaturated and saturated components.

[8] = tested on: Nannochloropsis salina; test: 500 mL batch culture: growth, dry weight and lipid extract (gravimetric); type: cell-based
Protocol: as §6, §7, §8
Cultures were harvested at day 6 in stationary phase. Cultures were pelleted, lyophilized, and extracted side-by-side. The experiment was performed in triplicate.
The nonpolar algal extracts were harvested from 500 mL cultures when indicated on growth curves, a minimum of 3 days into stationary phase. […] Cells were crushed and nonpolar lipids were extracted by sonication (Fisher Scientific Model 120 Sonic Dismembrator, ThermoFisher, San Jose) for 1 minute in chloroform, followed by chloroform-methanol extractions, washed with PBS butter, and dried under vacuum.^55-60 The crude non-polar algae extracts were then analyzed by ^1H Nuclear Magnetic Resonance (^1H NMR) for verification of TAG presence and examination of the purity of the extract (determination of level of chlorophyll).
as §10, §11

[9] = tested on: Nannochloropsis oculata; details: for increase in lipid levels (Nile Red): lower concentrations, >0.040 nM
Protocol: as §1, §2, §3, §4, §5

[10] = tested on: microalgae; test: 500 mL batch culture (growth, gravimetric lipids), algae strain not stated; type: cell-based; details: 500 mL batch cultures (Table 30)
[11] = tested on: Nannochloris sp.; test: Microplate assay: growth (absorbance 680 nm) and intracellular lipids (Nile Red fluorescence); type: cell-based
[12] = DMSO at 0.4% v/v, batch culture
[13] = N. oculata, DMSO average, harvested day 6 of stationary phase, n=3
[14] = 0.4% by volume, 500 mL culture, day 6 in stationary phase
[15] = 500 mL batch cultures, gravimetric (Table 30)
[16] = 200 nM, initial microplate screen, relative to control
[17] = 40 μM, initial microplate screen, relative to control

## Cc1cc2c(C(C)C)c(O)c(O)c(C=O)c2c(O)c1-c1c(C)cc2c(C(C)C)c(O)c(O)c(C=O)c2c1O [Gossypol, 2,2′-bis-(Formyl-1,6,7-trihydroxy-5-isopropyl-3-methylnaphthalene)]
[1]; 0.0757 nM, DMSO delivery
  increase in lipid production: > 250%
[1]; 0.0757 nM, dose-response microplate screen
  Nile Red percent increase: 111%
[1]; 0.0252-165.6 nM
  % increase (lipid production): 5-283%
[1]; DMSO delivery
  optimal effective concentration (lipid production): 0.0757 nM
[2]; 0.0757-6.13 nM (H2O)
  % increase (lipid production): 1-27(H2O) %
[2]; 0.0757-55.2 nM, DMSO delivery
  % increase (lipid production): 8-81%
[2]; N. salina, 6.13 nM, DMSO, t=day 0
  % Lipid increase based on Nile red fluorescence intensity: 103%
[2]; N. salina, 6.13 nM, DMSO delivery, added t=day 0
  % Increase based on Nile Red Fluorescence Intensity: 103%
[2]; lipoxygenase inhibitor microplate screen
  optimal effective concentration (lipid production): 6 nM
[3]; P. tricornutum, 500 mL culture, 76 pM
  Lipid productivity: 5.6 ± 1.9 mgL^−1day^−1
[3]; P. tricornutum, 500 mL culture, 76 pM, dried lipid extract per dry biomass
  Lipid content: 24.4 ± 2.7 % w/w
[3]; P. tricornutum, 500 mL culture, 76 pM, gravimetric, relative to averaged control without DMSO
  Change in Lipids: 27%
[3]; P. tricornutum, 500 mL culture, 76 pM, mid-exponential growth phase
  Specific Growth Rate: 0.21 ± 0.05 day⁻¹

## C[S+](C)[O-] [DMSO, dimethylsulfoxide]
[2]; >0.8% v/v DMSO, microplates
  effect on growth and cell density: detrimental effect on growth and cell density
[3]; 500 mL batch culture
  effect on growth and lipid levels: No significant changes; also recorded: decrease in growth and lipid production; also recorded: no effect, or a small decrease in growth and lipid production
[4]; 0.4% v/v DMSO
  effect on growth (deviation from control growth): ≤ 10%
[4]; less than 0.4% v/v DMSO, microplates, any of the four microalgae strains
  effect on growth: did not show a toxic or detrimental effect on the growth
[4]; ≧1% v/v DMSO
  effect on growth: detrimental growth effects
[5]; 500 mL batch culture
  effect on growth and lipid levels: No significant changes; also recorded: no effect, or a small decrease in growth and lipid production
[6]; 1.0% DMSO, batch cultures
  increase in lipid levels relative to control without DMSO: 78%
[6]; 500 mL batch culture
  effect on growth and lipid levels: increased growth and lipid levels
[6]; [12]
  increase in lipid levels: 39%
[6]; N. oculata, DMSO (0.4%), n=3
  Absorbance at harvest: 1.776 ± 0.060
  Dry weight: 409.2 ± 105.6
  Extract Weight: 67.2 ± 7.8
[6]; N. oculata, DMSO (1%), n=2
  Absorbance at harvest: 1.827 ± 0.288
  Dry weight: 280.4 ± 88.0
  Extract Weight: 47.2 ± 11.0
[6]; [13]
  Absorbance at harvest: 1.83
  Dry weight: 283.27 mg
  Extract Weight: 56.83 mg
  Number of Cells: 2.32E+09
  Recovered Weight: 267.27 mg
[7]; 1%
  SFAs (%): 7%
  MUFAs (%): 32%
  n3 PUFAs (%): 17%
  PUFAs (%): 61%
[8]; [14]
  Absorbance at harvest: 1.50 ± 0.13
  Dry weight: 429.90 ± 109.74 mg
  Extract Weight: 92.83 ± 6.37 mg
  Number of Cells: 1.44E+09
  Recovered Weight: 393.17 ± 112.84 mg
[8]; 500 mL batch culture
  effect on growth and lipid levels: increased growth and lipid levels
[8]; [12]
  increase in lipid levels: 25%
[8]; DMSO, batch culture (Table 18)
  increase in lipid levels: up to 50%
[9]; 0.4% DMSO, microplate screen
  increase in cell density: 57%
  increase in lipid levels: 75%
[9]; >0.8% v/v DMSO, microplates
  effect on growth and cell density: detrimental effect on growth and cell density

## CCN(CC)CCCC(C)Nc1c2ccc(Cl)cc2nc2ccc(OC)cc12.Cl.Cl (centres unmarked) [Quinacrine, 6-Chloro-9-(4-diethylamino-1-methylbutyl-amino)-2-methoxyacridine dihydrochloride]
[2]; 55 nM, dose-response microplate screen
  Nile Red percent increase: 103%
[10]
  effect on growth and lipid levels: positive increases in growth and lipid levels
[5]; [15]
  increase in lipid levels: 31%
[5]; 40 nM
  Lipid productivity: 4.2 ± 1.1 mgL^−1day^−1
  Change in Lipids: 31%
  Specific Growth Rate: 0.18 ± 0.01 day⁻¹
[11]
  % Increase based on Nile Red Fluorescence Intensity: 135%
[11]; Nannochloris sp., 49 nM, (water), t=day 0
  % Lipid increase based on Nile red fluorescence intensity: 136%
[11]; Nannochloris sp., 49 nM, dissolved in water, added t=day 0
  % Increase based on Nile Red Fluorescence Intensity: 136%
[11]; in water, dose-response microplate screening
  increase in intracellular lipids compared to the control (Nile red): more than 100%
[6]; [15]
  increase in lipid levels: 51%
[6]; N. oculata, 500 mL culture, 400 nM
  Lipid productivity: 5.2 ± 0.6 mgL^−1day^−1
[6]; N. oculata, 500 mL culture, 400 nM, gravimetric, relative to averaged control without DMSO
  Change in Lipids: 51%
[6]; N. oculata, 500 mL culture, 400 nM, mid-exponential growth phase
  Specific Growth Rate: 0.18 ± 0.04 day⁻¹
[7]; 4 nM
  SFAs (% of total lipids): 53 % of total lipids
  n3 PUFAs (% of UFAs): 45 % of UFAs
  All other PUFAs and MUFAs (% of UFAs): 55 % of UFAs
  UFAs (% of total lipids): 47 % of total lipids
[7]; 400 nM
  SFAs (%): 3%
  MUFAs (%): 12%
  n3 PUFAs (%): 17%
  PUFAs (%): 76%
[8]; N. salina, 500 mL culture, 40 nM
  Lipid productivity: 4.5 ± 1.0 mgL^−1day^−1
[8]; N. salina, 500 mL culture, 40 nM, dried lipid extract per dry biomass
  Lipid content: 26.5 ± 3.9 % w/w
[8]; N. salina, 500 mL culture, 40 nM, gravimetric, relative to averaged control without DMSO
  Change in Lipids: 6%
[8]; N. salina, 500 mL culture, 40 nM, mid-exponential growth phase
  Specific Growth Rate: 0.25 ± 0.02 day⁻¹
[9]; N. oculata, 244 nM, DMSO, t=day 0
  % Lipid increase based on Nile red fluorescence intensity: 106%
[9]; N. oculata, 61 pM, DMSO delivery, added t=day 0
  % Increase based on Nile Red Fluorescence Intensity: 100%
[9]; N. oculata, 244 pM, DMSO delivery, added t=day 0
  % Increase based on Nile Red Fluorescence Intensity: 106%
[9]; N. oculata, 976 pM, DMSO delivery, added t=day 0
  % Increase based on Nile Red Fluorescence Intensity: 93%
[9]; N. oculata, 4 nM, DMSO delivery, added t=day 0
  % Increase based on Nile Red Fluorescence Intensity: 75%
[9]; N. oculata, 15.6 nM, DMSO delivery, added t=day 0
  % Increase based on Nile Red Fluorescence Intensity: 66%

## CC1CC(C)C(=O)C(C(O)CC2CC(=O)NC(=O)C2)C1 (centres unmarked) [Cycloheximide, 3-[2-(3,5-Dimethyl-2-oxocyclohexyl)-2-hydroxyethyl]glutarimide]
[1]; P. tricornutum, 400 nM, added at exponential phase, t=day 7
  % Lipid increase based on Nile red fluorescence intensity: 408%
[1]; P. tricornutum, 400 nM, added during exponential phase
  % Increase based on Nile Red Fluorescence Intensity: 408%
[4]; added in the initial phase, <1 μM, greater than 1 μM
  effect on lipid levels: minimal increase in lipid levels
[4]; added in the initial phase, <1 μM, greater than 1 μM, all four species
  effect on cell growth: inhibitory effect on cell growth
[11]; [16]
  Absorbance (percent increase): −12.4%
  Nile Red percent increase: 178.1%
[7]; 40 nM (exponential)
  SFAs (% of total lipids): 39 % of total lipids
  n3 PUFAs (% of UFAs): 33 % of UFAs
  All other PUFAs and MUFAs (% of UFAs): 67 % of UFAs
  UFAs (% of total lipids): 61 % of total lipids
[9]; 4.6-41.2 nM, dose-response microplate screen
  Nile Red percent increase: 87-96%
[9]; N. oculata, compounds tested at 200 nM, initial screening, p<0.05
  Nile Red Fluorescence % Increase: 137.9%

## Oc1ccc(-c2nc(-c3ccncc3)c(-c3ccc(F)cc3)[nH]2)cc1 [SB202190, 4-(4-Flurophenyl)-2-(4-hydroxyphenyl)-5-(4-pyridyl)-1H-imidazole]
[1]; [17]
  Absorbance (percent increase): +4.26%
  Nile Red percent increase: 112.4%
[1]; DMSO as delivery agent
  increase in lipid levels: 26%
[1]; P. tricornutum, compounds tested at 40 μM, initial screening, p<0.05
  Nile Red Fluorescence % Increase: 115.0%
[1]; water as delivery agent
  increase in lipid levels: 99%
[5]; 4 nM
  Lipid productivity: 3.0 ± 1.7 mgL^−1day^−1
  Change in Lipids: 3%
  Specific Growth Rate: 0.17 ± 0.02 day⁻¹
[5]; 4 nM, exponential addition
  Lipid productivity: 4.0 ± 1.6 mgL^−1day^−1
  Change in Lipids: 38%
  Specific Growth Rate: 0.15 ± 0.08 day⁻¹
[5]; batch culture, added during the exponential growth phase
  increase in lipid levels: 38%
[11]; 123-457 pM, dose-response microplate screen
  Nile Red percent increase: 103-175%
[11]; Nannochloris sp., compounds tested at 20 μM, initial screening, p<0.05
  Nile Red Fluorescence % Increase: 54.6% and 28.8%
[9]; N. oculata, 400 fM, added at exponential phase, t=day 7
  % Lipid increase based on Nile red fluorescence intensity: 95%
[9]; N. oculata, 400 fM, added during exponential phase
  % Increase based on Nile Red Fluorescence Intensity: 95%
[9]; compound added at t=day 0
  increase in lipid levels (Nile Red): 45%
[9]; compound added in exponential growth phase (Day 7)
  increase in lipid levels (Nile Red): 95%
